Experimental data: US4203986A, “M-Trifluoro-methylphenyl-piperazine” (Metabio-Joullie, priority 1977, dated 1980)
Like-named read-outs stand apart in the source and are kept apart here.

Experiments:
Acute toxicity in Mice = assay type: in vivo, mice (SWISS, EOPS, NMRI/Han, female); conditions: for LD50 at 360 h / MTD at 360 h: mouse, in vivo; for LD50 at 360 h: method of KARBER and BEHRENS; for MTD at 360 h: read-out: LD 0 (maximum dose tolerated)
Method: The compounds are administered in increasing doses (in arithmetic progression) to groups of five .female. SWISS, EOPS, NMRI/Han mice of the EVIC CEBA strain and having a mean weight of 22 g.
For intravenous administration the compounds are dissolved in distilled water, for oral administration they are suspended in 10% gum arabic solution (volume administered: 0.5 ml/22 g body weight).
The LD 50's are calculated according to the method of KARBER and BEHRENS (B.) (Arch. Exp. Path. Pharmakol. 1935, 177, 379-388).
For each administration method, there is indicated:
LD 0 or maximum dose tolerated.
LD 100 or minimum lethal dose.
The number of animals surviving in the different groups is definitively verified 15 days after administrating the compounds.

[1] = tested on: toxicity of amphetamine compounds; experiment: Action on the toxicity of Amphetamine compounds in the mice; assay type: in vivo; conditions: per os
Method: (6) Action on the toxicity of Amphetamine compounds in the mice. (groups of 10 animals)
30 minutes after administration of the test compounds, amphetamine bitartrate is injected interperitioeally at a dose of 10 mg/kg (dose giving substantially 100% mortality) to mice in groups of 10 in boxes 12×18×13 cm. The number of animals surviving 24 hours after the amphetamine administration is noted.

[2] = Test on the cataleptic action in rats; assay type: in vivo; conditions: p.o., every 30 minutes for 6 hours
Method: (7) Test on the cataleptic action in rats (groups of 5 animals)
After administration p.o. of the test compounds, the degree of catalepsy is noted every 30 minutes for 6 hours by the test of crossing of the homolateral feet according to BOISSIER (J.R.) and SIMON (P.) (Therapy, 1963, 18, 1257-1277) and using the following notation:
0=animal which is not cataleptic
132 animal conserving position on one side only
2=animal conserving position on both sides

[3] = tested on: coughing induced by aqueous citric acid aerosol; experiment: Antitussive action in the guinea pig (citric acid aerosol); assay type: in vivo
Source text: The technique used is that of SIECKMANN (W.) (in "Notions techniques de Pharmacologie generale" by Michel COLOT, page 75, Masson, Edit, 1972).
The guinea pigs .female. of mean weight 400 g, unanaesthesised, are subjected to the tussigenic effect of aerosols of a 7.5% aqueous citric acid solution. The animals are placed one by one in a cylindrical chamber having at its two extremities two canals, one serving as entrance for the aerosol and the other as its exit.
On the exit tube there is a lateral connection to a MERCURY gas pressure differential gauge joined to an RACIA counter. An adjustable screw clamp placed on the exit tube downstream of the lateral canal permits regulation of the sensitivity of the system such that the normal respiration of the animal only registers very weakly and that displacement of air in the chamber provoked by coughing attack is recorded clearly in the form of vertical traces.
Each guinea pig is first submitted to a control test for 5 minutes. One hour later it receives the test compound. It is replaced in the chamber for 5 minutes, 1 hour after oral administration of the compound.
The number of coughing attacks before and after administration is counted and the percentage inhibition is calculated.

[4] = tested on: coughing by stimulation of the superior larynx nerve; experiment: Antitussive action in the cat (stimulation of the superior larynx nerve); assay type: in vivo; conditions: 12 mg/kg i.v.
Method: The cats all thriving, male or female of weight between 1.5 and 2.5 kg (test on 10 cats) are anaesthesised by nembutal at a dose of 30 mg/kg interperitoneally.
A cannula having three branches is placed in the trachea. Two of the branches are connected to a device for registering intratracheal pressure (MERCURY gas pressure gauge connected to an RACIA polygraph) The third branch allows elimination of part of the respiratory volume.
A cannula is placed in the femoral vein for administration of the test substances.
The stimulation parameters are as follows: frequency: 5 cycles per sec, amplitude: 5 millisec, voltage: 4 to 6 volts, duration: 15 to 45 sec. (according to the sensitivity of the animal).
There are carried a minimum of 3 stimulations spaced by 5 minutes and provoking coughing attacks of the same severity. The compound is then administered intravenously. The stimulation is then carried out every 5 minutes. If the compound reduces or suppresses the coughing the stimulation is continued until the reappearance of coughing to approximately the same degree as the initial coughing.
The results are expressed as a percentage reduction in the number of coughs.

Structure (SMILES): O=C1CCCCC1CN1CCN(c2cccc(C(F)(F)F)c2)CC1 (centres unmarked) [LJ 1144]
- LD 100 (minimum lethal dose) (Acute toxicity in Mice; intravenous administration): 75 mg/kg
- LD50 at 360 h (Acute toxicity in Mice; iv, intravenous administration): 61 mg/kg
- MTD at 360 h (Acute toxicity in Mice; iv, intravenous administration): 37.5 mg/kg
- LD50 at 360 h (Acute toxicity in Mice; po, oral administration): 1820 mg/kg
- MTD at 360 h (Acute toxicity in Mice; po, oral administration): 1250 mg/kg
- LD 100 (minimum lethal dose) (Acute toxicity in Mice; oral administration): 2250 mg/kg
- toxicity of amphetamine compounds (in words) [1]: reduce the toxicity of amphetamine compounds
- cataleptic effect [2]: absence of cataleptic effect
- inhibition in vivo at 182 mg/kg ([3]; Cavia porcellus, po, 1 h, 182 mg/kg p.o., read-out: Percentages of inhibition of coughing): 75%
- antitussive activity (in words) ([3]; oral): also active if not more active than codeine
- % maximum reduction in the number of coughs [4]: 85%
